Source: ChEMBL document CHEMBL1201862, “PubChem BioAssay data set” (2004)
The source made the active and inactive calls.

Tests used:
[1] = biological target: T1, G-protein coupled receptor 35 (Homo sapiens, UniProt Q9HC97); assay: SAR analysis of Antagonists of the GPR35 Receptor using an Image-Based Assay - Set 6. [Related pubchem assays (depositor defined):AID2013, AID2026]; format: functional
[2] = biological target: G-protein coupled receptor 55 (Homo sapiens, UniProt Q9Y2T6); assay: SAR Analysis of Selective Antagonists of GPR55 using an Image-Based Assay - Set 4. [Related pubchem assays (depositor defined):AID2013, AID2026]; format: functional;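 note: antagonism of response to 5 µM lysophosphatidylinositol agonist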
Cannabinoid receptor 1 [3] = biological target: T2, Cannabinoid receptor 1 (Homo sapiens, UniProt P21554); assay: SAR analysis of antagonists of the Cannabinoid Receptor 1 using an Image-Based Assay - Set 4. [Related pubchem assays (depositor defined):AID2013, AID2026]; format: functional
[4] = biological target: T1, G-protein coupled receptor 35; assay: SAR analysis of Agonists of the GPR35 Receptor using an Image-Based Assay - Set 4. [Related pubchem assays (depositor defined):AID2013, AID2026]; format: functional
Cannabinoid receptor 2 [5] = biological target: T3, Cannabinoid receptor 2 (Homo sapiens, UniProt P34972); assay: SAR analysis of antagonists of the Cannabinoid Receptor 2 using an Image-Based Assay - Set 3. [Related pubchem assays (depositor defined):AID2013, AID2026]; format: functional
Cannabinoid receptor 1 [6] = biological target: T2, Cannabinoid receptor 1; assay: SAR analysis of agonists of the Cannabinoid Receptor 1 using an Image-Based Assay - Set 4. [Related pubchem assays (depositor defined):AID2013, AID2026]; format: functional
Cannabinoid receptor 2 [7] = biological target: T3, Cannabinoid receptor 2; assay: SAR analysis of agonists of the Cannabinoid Receptor 2 using an Image-Based Assay - Set 3. [Related pubchem assays (depositor defined):AID2013, AID2026]; format: functional
Protein skinhead-1 = biological target: T4, Protein skinhead-1 (Caenorhabditis elegans, UniProt P34707); format: functional
T4 sequence (P34707 whole entry): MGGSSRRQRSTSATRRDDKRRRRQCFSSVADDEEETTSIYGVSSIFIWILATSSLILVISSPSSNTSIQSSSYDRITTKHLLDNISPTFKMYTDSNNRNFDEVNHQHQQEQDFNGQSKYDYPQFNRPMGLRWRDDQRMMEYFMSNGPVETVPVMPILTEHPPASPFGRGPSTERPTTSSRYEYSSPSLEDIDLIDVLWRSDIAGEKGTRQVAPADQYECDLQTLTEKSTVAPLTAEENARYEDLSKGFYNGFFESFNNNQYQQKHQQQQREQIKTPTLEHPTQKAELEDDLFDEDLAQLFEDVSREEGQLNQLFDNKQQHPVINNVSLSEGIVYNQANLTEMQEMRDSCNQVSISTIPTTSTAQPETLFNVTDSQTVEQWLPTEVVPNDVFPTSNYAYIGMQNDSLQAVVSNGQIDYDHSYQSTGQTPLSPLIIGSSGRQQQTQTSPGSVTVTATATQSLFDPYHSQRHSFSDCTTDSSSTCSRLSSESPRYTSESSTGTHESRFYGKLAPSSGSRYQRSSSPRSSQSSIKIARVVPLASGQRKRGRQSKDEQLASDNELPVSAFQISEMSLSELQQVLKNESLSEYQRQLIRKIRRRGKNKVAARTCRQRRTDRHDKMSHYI

Troponin, cardiac muscle = Troponin, cardiac muscle (Homo sapiens, UniProt P19429+P45379+P63316); assay: Fluorescence-based biochemical high throughput dose response assay for activators of the calcium sensitivity of cardiac Regulated Thin Filaments (RTF). [Related pubchem assays (depositor defined):AID493008, AID493018, AID504382, AID504383]; format: protein-complex assay
[8] = biological target: E3 ubiquitin-protein ligase Mdm2 (Homo sapiens, UniProt Q00987); assay: MDM2-luc reporter signal enhancers, multi-concentration potency testing, MDM2 ubiquitin-protein ligase inhibitor program, whole-cell format, luminescence detection, 384-well microplate (AID 1394); format: functional;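 note: MDM2 E3 inhibitors raise luminescence so EC50 is for signal enhancement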
[9] = biological target: T5, Bifunctional protein GlmU (Mycobacterium tuberculosis, UniProt P9WMN3); assay: Inhibitors of Mycobacterial Glucosamine-1-phosphate acetyl transferase (GlmU). Secondary screen.; parameters: species or system Mycobacterium tuberculosis H37Rv
T5 sequence (P9WMN3 whole entry): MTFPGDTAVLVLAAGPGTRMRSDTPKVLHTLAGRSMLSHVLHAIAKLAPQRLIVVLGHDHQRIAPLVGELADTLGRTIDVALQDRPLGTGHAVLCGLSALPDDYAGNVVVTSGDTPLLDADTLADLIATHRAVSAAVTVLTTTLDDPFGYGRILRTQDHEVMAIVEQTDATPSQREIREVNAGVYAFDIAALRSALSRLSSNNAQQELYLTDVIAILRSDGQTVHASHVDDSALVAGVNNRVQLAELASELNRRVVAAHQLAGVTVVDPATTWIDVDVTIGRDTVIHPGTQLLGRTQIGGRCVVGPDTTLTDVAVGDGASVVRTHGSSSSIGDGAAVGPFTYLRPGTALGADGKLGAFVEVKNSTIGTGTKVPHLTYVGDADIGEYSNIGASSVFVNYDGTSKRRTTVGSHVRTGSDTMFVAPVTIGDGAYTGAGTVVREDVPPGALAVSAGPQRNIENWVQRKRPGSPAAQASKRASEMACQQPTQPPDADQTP

[10] = biological target: T6, Rac GTPase-activating protein 1 (Homo sapiens, UniProt Q9H0H5); assay: blockers of MgcRacGAP-driven Rac1 GTP hydrolysis – biochemical, ADP Hunter fluorescence, primary and confirmatory, confirmation (AID 624330); format: functional
T6 sequence (Q9H0H5 whole entry): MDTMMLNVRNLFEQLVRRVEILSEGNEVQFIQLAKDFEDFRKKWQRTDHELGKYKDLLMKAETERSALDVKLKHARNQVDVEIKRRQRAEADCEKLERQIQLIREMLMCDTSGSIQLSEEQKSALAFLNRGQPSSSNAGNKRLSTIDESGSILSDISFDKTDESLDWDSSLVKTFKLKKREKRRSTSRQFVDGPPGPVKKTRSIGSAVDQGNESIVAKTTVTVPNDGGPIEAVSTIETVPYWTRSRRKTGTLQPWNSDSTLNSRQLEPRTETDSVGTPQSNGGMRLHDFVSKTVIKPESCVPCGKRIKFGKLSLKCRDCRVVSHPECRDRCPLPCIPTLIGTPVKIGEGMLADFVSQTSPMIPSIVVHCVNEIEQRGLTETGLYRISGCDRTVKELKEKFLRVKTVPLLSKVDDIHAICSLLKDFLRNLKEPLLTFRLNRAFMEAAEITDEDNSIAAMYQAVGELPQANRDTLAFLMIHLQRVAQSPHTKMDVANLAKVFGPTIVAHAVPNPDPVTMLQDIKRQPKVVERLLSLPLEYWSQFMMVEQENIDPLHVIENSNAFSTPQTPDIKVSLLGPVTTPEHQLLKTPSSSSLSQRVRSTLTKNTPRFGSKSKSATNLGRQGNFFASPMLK

[11] = biological target: DNA damage-inducible transcript 3 protein (Mus musculus, UniProt P35639); format: functional, Cricetulus griseus
CHO-K1 = assay: (§1) Counterscreen for antagonists of the orexin 1 receptor (OX1R; HCRTR1): Homogeneous time resolved fluorescence (HTRF)-based cell-based dose response assay to identify antagonists of the parental CHO-K1 cell line. [Related pubchem assays (depositor defined):AID434989, AID435008, AID463079, AID485270, AID492963, AID492964, AID492965, AID493232, AID504699, AID504701]; format: functional; details: Cricetulus griseus
[12] = biological target: T7, Orexin/Hypocretin receptor type 1 (Homo sapiens, UniProt O43613); assay: Homogeneous Time Resolved Fluorescence (HTRF)-based cell-based high throughput dose response assay for antagonists of the orexin 1 receptor (OX1R; HCRTR1). [Related pubchem assays (depositor defined):AID434989, AID435008, AID463079, AID485270, AID492963, AID492964, AID492965, AID493232, AID504717, AID504718]; format: functional
T7 sequence (O43613 whole entry): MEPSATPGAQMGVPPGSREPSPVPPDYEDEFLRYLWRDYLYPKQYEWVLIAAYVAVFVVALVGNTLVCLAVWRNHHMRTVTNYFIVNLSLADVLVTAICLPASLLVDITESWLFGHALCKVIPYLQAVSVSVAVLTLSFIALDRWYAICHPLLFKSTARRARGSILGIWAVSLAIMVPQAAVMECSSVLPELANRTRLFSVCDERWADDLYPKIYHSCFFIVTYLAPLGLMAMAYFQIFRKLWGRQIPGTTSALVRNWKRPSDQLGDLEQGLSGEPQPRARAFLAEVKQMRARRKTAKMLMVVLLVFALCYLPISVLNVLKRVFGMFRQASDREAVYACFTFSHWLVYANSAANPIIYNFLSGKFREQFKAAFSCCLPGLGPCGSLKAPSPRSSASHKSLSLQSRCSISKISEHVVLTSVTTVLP

[13] = biological target: T7, Orexin/Hypocretin receptor type 1; assay: Fluorescence-based cell-based high throughput dose response assay for antagonists of the orexin 1 receptor (OX1R; HCRTR1). [Related pubchem assays (depositor defined):AID434989, AID435008, AID463079, AID485270, AID492963, AID492964, AID492965, AID493232, AID504717, AID504718]; format: functional
[14] = as §1, with “Fluorescence-based” for “Homogeneous time resolved fluorescence (HTRF)-based”, “cell-based high throughput” for “cell-based”, “CHO” for “CHO-K1”; format: functional
[15] = biological target: Voltage-dependent T-type calcium channel subunit alpha-1H (Homo sapiens, UniProt O95180); assay: human CACNA1H calcium influx blockade – cell-based, synthetic library set 2, HEK293 HH8, Fluo-4, SAR follow-up (AID 493023); format: functional
Coagulation factor XII = biological target: T8, Coagulation factor XII (Homo sapiens, UniProt P00748); format: functional;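 note: activated factor XIIa alpha cleaving a fluorogenic AMC peptide substrate; inhibitor potency from loss of enzyme activity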
T8 sequence (P00748 whole entry): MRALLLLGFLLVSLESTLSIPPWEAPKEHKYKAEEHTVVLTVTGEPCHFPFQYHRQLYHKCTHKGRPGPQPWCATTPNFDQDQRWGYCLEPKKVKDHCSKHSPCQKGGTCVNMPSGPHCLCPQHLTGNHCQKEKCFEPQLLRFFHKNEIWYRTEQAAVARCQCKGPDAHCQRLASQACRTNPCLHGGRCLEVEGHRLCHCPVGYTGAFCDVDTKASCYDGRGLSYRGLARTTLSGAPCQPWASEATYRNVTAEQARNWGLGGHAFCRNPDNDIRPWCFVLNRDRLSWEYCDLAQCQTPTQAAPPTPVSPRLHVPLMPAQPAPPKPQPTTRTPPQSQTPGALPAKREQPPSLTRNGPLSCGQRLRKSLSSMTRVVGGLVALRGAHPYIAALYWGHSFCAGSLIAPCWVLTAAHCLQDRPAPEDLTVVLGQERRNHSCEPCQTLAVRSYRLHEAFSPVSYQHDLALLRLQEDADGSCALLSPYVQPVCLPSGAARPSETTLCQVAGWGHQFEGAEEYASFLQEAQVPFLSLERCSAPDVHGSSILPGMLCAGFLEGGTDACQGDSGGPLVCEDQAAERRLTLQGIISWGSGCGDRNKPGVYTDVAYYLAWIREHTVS

[16] = biological target: T9, Heat shock factor protein 1 (Mus musculus, UniProt P38532); assay: decrease of HSF1-responsive luciferase luminescence – cell-based, NIH3T3, dose retest, confirmation (AID 2382); format: functional;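 note: NIH3T3 fibroblasts with HSF1-driven luciferase reporter stressed by proteasome inhibitor MG132; luminescence from HSF1-driven luciferase expression after 8 hours of MG132 stress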
T9 sequence (P38532 whole entry): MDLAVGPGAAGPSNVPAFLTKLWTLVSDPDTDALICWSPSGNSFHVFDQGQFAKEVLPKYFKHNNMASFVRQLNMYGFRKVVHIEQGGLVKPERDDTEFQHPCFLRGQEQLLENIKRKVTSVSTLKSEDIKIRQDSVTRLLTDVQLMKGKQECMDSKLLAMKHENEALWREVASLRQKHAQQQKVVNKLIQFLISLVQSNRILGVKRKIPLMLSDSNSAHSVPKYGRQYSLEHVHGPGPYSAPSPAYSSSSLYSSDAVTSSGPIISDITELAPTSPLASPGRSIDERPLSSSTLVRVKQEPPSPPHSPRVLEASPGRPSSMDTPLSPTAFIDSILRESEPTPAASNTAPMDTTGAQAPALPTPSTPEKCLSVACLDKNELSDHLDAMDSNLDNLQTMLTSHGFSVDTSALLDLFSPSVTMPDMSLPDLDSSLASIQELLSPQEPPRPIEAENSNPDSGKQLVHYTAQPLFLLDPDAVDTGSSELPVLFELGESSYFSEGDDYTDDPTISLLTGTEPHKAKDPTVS

T2 sequence (P21554 whole entry): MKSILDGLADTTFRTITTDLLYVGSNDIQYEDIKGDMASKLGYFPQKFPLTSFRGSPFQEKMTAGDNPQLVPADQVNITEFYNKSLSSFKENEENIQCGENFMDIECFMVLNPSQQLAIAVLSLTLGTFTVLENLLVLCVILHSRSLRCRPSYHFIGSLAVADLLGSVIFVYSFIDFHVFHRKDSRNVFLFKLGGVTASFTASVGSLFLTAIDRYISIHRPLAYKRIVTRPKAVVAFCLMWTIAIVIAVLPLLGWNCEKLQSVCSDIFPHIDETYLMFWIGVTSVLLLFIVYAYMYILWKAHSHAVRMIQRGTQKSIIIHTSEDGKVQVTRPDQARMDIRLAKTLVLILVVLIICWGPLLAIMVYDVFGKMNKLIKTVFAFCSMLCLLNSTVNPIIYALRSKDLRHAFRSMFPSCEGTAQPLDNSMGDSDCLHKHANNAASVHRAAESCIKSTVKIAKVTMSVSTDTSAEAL
T3 sequence (P34972 whole entry): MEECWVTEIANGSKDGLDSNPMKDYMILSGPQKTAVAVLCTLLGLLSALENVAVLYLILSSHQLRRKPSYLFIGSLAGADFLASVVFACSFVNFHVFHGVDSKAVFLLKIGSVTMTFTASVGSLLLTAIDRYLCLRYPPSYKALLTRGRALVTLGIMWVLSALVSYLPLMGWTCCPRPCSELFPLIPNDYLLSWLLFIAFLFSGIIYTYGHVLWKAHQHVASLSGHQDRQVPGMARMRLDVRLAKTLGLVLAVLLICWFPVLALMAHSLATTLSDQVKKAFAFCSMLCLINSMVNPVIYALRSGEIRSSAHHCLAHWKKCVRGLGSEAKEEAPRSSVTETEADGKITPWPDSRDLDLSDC
T1 sequence (Q9HC97 whole entry): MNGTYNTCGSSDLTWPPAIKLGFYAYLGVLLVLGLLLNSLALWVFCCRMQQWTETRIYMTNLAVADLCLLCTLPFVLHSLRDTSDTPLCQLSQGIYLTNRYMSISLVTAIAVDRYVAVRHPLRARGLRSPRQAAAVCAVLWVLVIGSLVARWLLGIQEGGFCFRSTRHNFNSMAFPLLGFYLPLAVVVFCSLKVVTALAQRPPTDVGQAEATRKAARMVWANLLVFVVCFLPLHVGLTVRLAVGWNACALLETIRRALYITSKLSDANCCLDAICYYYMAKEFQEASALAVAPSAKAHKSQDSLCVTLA
Chain of DNA damage-inducible transcript 3 protein (P35639 whole entry): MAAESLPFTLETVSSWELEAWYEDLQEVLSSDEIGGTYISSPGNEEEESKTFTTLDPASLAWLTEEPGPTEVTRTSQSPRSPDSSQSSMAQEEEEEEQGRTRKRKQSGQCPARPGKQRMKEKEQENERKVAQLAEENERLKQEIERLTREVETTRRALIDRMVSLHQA
Chain of G-protein coupled receptor 55 (Q9Y2T6 whole entry): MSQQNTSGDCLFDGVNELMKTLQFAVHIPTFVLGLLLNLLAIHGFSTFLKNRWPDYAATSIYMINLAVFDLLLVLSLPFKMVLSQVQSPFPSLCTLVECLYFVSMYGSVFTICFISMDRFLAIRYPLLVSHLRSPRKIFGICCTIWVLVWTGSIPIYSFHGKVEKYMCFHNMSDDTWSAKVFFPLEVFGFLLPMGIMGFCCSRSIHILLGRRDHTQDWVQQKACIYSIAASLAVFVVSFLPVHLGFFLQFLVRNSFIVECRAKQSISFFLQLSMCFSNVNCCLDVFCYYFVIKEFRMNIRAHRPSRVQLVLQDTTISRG
Chain of E3 ubiquitin-protein ligase Mdm2 (Q00987 whole entry): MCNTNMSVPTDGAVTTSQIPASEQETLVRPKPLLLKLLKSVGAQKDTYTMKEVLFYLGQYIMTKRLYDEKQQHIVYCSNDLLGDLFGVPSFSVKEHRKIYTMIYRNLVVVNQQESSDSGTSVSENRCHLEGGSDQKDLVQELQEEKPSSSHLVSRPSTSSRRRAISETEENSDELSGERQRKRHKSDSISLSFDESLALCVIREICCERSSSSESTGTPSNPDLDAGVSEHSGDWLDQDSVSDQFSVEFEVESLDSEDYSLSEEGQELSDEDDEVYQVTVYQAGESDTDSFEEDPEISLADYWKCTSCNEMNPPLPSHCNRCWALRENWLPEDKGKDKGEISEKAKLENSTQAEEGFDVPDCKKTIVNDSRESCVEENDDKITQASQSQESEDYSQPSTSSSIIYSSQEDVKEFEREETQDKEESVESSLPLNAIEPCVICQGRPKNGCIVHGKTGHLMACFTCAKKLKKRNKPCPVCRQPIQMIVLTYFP
Chain of Voltage-dependent T-type calcium channel subunit alpha-1H (O95180 whole entry): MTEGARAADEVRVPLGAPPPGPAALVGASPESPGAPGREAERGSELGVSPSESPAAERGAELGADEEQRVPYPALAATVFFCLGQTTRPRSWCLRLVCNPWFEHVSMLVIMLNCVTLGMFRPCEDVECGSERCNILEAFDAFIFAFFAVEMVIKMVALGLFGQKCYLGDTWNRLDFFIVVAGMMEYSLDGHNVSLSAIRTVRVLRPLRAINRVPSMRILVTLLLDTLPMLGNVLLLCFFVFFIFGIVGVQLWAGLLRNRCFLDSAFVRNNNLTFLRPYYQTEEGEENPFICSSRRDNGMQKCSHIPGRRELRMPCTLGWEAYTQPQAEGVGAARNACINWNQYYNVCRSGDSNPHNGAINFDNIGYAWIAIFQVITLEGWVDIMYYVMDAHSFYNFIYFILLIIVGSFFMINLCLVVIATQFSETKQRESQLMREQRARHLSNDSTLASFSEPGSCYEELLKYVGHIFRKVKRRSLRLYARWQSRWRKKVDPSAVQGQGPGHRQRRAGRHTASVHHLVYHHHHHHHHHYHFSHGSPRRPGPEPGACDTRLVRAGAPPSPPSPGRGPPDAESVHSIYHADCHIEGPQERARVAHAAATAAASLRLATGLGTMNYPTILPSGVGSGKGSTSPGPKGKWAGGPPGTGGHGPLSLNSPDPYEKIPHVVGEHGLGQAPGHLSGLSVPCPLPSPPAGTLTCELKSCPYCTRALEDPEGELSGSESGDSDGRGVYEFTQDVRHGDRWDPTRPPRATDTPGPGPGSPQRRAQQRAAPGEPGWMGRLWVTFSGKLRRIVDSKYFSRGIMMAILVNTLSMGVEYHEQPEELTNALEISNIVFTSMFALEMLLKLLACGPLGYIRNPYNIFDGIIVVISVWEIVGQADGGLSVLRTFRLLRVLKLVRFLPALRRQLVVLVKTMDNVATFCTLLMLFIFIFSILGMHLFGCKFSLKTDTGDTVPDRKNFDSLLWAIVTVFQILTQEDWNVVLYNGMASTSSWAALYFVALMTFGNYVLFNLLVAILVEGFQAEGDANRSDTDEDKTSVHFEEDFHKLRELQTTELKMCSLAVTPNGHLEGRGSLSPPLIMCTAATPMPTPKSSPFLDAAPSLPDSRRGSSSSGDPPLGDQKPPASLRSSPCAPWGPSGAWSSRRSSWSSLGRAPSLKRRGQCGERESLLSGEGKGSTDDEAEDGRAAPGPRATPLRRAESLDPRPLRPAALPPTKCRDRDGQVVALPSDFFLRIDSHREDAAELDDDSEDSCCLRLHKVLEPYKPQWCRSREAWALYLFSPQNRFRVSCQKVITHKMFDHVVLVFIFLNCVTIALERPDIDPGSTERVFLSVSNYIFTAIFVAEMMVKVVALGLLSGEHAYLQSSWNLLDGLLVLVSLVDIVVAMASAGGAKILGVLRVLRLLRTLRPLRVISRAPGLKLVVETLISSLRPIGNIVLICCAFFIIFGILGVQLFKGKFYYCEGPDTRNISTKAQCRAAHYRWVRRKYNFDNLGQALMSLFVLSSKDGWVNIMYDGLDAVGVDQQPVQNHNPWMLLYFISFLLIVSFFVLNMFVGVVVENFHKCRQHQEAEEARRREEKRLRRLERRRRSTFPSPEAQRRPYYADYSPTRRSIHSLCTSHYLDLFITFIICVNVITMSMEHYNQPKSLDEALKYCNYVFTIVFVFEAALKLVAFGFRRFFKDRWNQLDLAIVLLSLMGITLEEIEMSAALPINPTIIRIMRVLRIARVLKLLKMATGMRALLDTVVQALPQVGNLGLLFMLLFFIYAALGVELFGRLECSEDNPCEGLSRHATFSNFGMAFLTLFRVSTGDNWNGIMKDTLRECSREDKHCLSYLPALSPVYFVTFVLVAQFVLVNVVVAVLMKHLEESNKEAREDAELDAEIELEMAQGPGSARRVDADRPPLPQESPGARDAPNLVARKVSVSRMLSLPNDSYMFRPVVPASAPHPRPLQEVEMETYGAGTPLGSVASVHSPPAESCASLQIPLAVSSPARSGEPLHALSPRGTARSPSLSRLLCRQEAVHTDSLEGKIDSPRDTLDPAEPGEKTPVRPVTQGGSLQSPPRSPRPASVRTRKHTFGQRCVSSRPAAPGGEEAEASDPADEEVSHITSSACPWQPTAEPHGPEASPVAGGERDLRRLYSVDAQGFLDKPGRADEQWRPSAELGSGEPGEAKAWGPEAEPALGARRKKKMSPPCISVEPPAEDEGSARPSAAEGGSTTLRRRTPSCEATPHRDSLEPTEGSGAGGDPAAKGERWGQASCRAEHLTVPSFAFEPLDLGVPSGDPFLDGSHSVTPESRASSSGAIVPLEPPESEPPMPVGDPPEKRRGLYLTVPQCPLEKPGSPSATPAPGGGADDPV

Structure (SMILES): Cc1nc(N2CCN(C(=O)c3ccccc3)CC2)c2c3c(sc2n1)CC(C)CC3 (centres undefined)
- IC50 [1]: > 32 µM (inactive)
- IC50 [2]: 21.5 µM (inactive)
- IC50 (Cannabinoid receptor 1 [3]): 1.68 µM (active)
- EC50 [4]: > 32 µM (inactive)
- IC50 (Cannabinoid receptor 2 [5]): > 9.18 µM (active)
- EC50 (Cannabinoid receptor 1 [6]): > 32 µM (inactive)
- EC50 (Cannabinoid receptor 2 [7]): 24.1 µM (inactive)

Structure (SMILES): CCN(CC)c1ccc(/C=C2\C(=O)c3ccc(C(=O)O)cc3C2=O)cc1
- IC50 (Protein skinhead-1): 23.3 µM (active)
- EC50 (Troponin, cardiac muscle): 0.516 µM (active)
- EC50 [8]: 0.1 µM (active)
- IC50 [9]: 37.7 µM (active)
- IC50 [10]: 85.4 µM (active)

Structure (SMILES): CCOc1ccc2nc(NC(=O)CSc3nc4c(c(=O)n(C)c(=O)n4C)n3C(C)C)sc2c1
- Absolute IC50 (CHOP) [11]: 10 µM

Structure (SMILES): COCCn1c(=O)c2ccccc2c2ccccc2c1=O
- EC50 (Troponin, cardiac muscle): > 71.5 µM (inactive)

Structure (SMILES): Oc1cc(/C=C/c2c(F)cccc2Cl)nc2ccccc12
- IC50 (CHO-K1): > 66.2 µM (inactive)
- IC50 [12]: 3.14 µM (active)
- IC50 [13]: 9.6 µM (active)
- IC50 [14]: > 49.7 µM (inactive)

Structure (SMILES): O=C(COc1ccccc1Cl)N[C@H]1CCCN(Cc2ccccc2)C1
- EC50 [15]: 10 µM (active)

Structure (SMILES): CC(C)Oc1ccc(CNC(=S)N/N=C/c2ccc([N+](=O)[O-])cc2)cc1
- IC50 (Coagulation factor XII): > 50 µM (inactive)
- Absolute IC50 (CHOP) [11]: 10 µM
- EC50 [16]: > 195 µM (not active)

Structure (SMILES): Cc1nc(N2CCN(C(=O)c3ccncc3)CC2)c2c3c(sc2n1)CC(C)CC3 (centres undefined)
- IC50 [1]: > 32 µM (inactive)
- IC50 [2]: > 32 µM (inactive)
- IC50 (Cannabinoid receptor 1 [3]): 13.3 µM (inactive)
- EC50 [4]: > 32 µM (inactive)
- IC50 (Cannabinoid receptor 2 [5]): > 32 µM (inactive)
- EC50 (Cannabinoid receptor 1 [6]): > 32 µM (inactive)
- EC50 (Cannabinoid receptor 2 [7]): > 32 µM (inactive)
